Laboratory results taken from PMC2935846 (Journal of the American Chemical Society, 2009).

Columns and labels:
[1] = Leakage of terbium from lipid vesicles; details: peptide:lipid 1:100, method as in earlier work
[2] = test system: E. coli cells; experiment: SYTOX Green uptake; details: 5 μM peptide; for SYTOX Green influx into E. coli (in words): E. coli cells in PBS
[3] = test system: E. coli cytoplasmic membrane; experiment: Membrane depolarization, diSC3; assay type: cell-based, Escherichia coli; details: E. coli 2 × 10^7 cells/mL, 50 nM diSC3(5)
[4] = test system: C. neoformans cells; experiment: SYTOX Green uptake; assay type: cell-based, Cryptococcus neoformans; details: 5 μM peptide, 2 × 10^7 cells/mL in PBS, 1 μM SYTOX Green

CC[C@H](C)[C@H](N)C(=O)N[C@@H](CC(C)C)C(=O)N1CCC[C@H]1C(=O)N[C@@H](Cc1c[nH]c2ccccc12)C(=O)N[C@@H](CCCCN)C(=O)N[C@@H](Cc1c[nH]c2ccccc12)C(=O)N1CCC[C@H]1C(=O)N[C@@H](Cc1c[nH]c2ccccc12)C(=O)N[C@@H](Cc1c[nH]c2ccccc12)C(=O)N1CCC[C@H]1C(=O)N[C@@H](Cc1c[nH]c2ccccc12)C(=O)N[C@@H](CCCNC(=N)N)C(=O)N[C@@H](CCCNC(=N)N)C(N)=O [Indolicidin]
% of Tb leakage, P:L 1:100 [1]: 8% | SYTOX Green influx into E. coli (in words) [2]: only a very small amount of dye influx

CC[C@H](C)[C@H](NC(=O)CN)C(=O)NCC(=O)N[C@@H](C)C(=O)N[C@H](C(=O)N[C@@H](CC(C)C)C(=O)N[C@@H](CCCCN)C(=O)N[C@H](C(=O)N[C@@H](CC(C)C)C(=O)N[C@H](C(=O)N[C@H](C(=O)NCC(=O)N[C@@H](CC(C)C)C(=O)N1CCC[C@H]1C(=O)N[C@@H](C)C(=O)N[C@@H](CC(C)C)C(=O)N[C@H](C(=O)N[C@@H](CO)C(=O)N[C@@H](Cc1c[nH]c2ccccc12)C(=O)N[C@H](C(=O)N[C@@H](CCCCN)C(=O)N[C@@H](CCCNC(=N)N)C(=O)N[C@@H](CCCCN)C(=O)N[C@@H](CCCNC(=N)N)C(=O)N[C@@H](CCC(N)=O)C(=O)N[C@@H](CCC(N)=O)C(N)=O)[C@@H](C)CC)[C@@H](C)CC)[C@@H](C)O)[C@@H](C)O)C(C)C)C(C)C [Melittin]
time of membrane potential dissipation ([3]; 5 μM peptide, 25°C): less than 30 seconds | permeabilization of fungal cells, SYTOX Green (in words) [4]: completely permeabilizes the fungal cells in just a few minutes | % of Tb leakage, P:L 1:100 [1]: 100% | time to 50% of the maximum SYTOX Green uptake ([2]; E. coli in PBS): about 15 minutes | time to complete SYTOX Green leakage ([2]; E. coli in PBS): ≤ 25 min

CC(C)[C@@H]1NC(=O)[C@H](C)OC(=O)[C@@H](C(C)C)NC(=O)[C@@H](C(C)C)OC(=O)[C@H](C(C)C)NC(=O)[C@H](C)OC(=O)[C@@H](C(C)C)NC(=O)[C@@H](C(C)C)OC(=O)[C@H](C(C)C)NC(=O)[C@H](C)OC(=O)[C@@H](C(C)C)NC(=O)[C@@H](C(C)C)OC1=O [valinomycin]
collapse of the membrane potential (in words) ([3]; 40 μM): Complete collapse of the membrane potential

CC1(C)S[C@@H]2[C@H](NC(=O)[C@H](N)c3ccccc3)C(=O)N2[C@H]1C(=O)O [ampicillin]
SYTOX Green influx into E. coli (in words) [2]: no effect
